Columns and labels:
[1] = mouse, in vivo
[2] = mouse, in vivo; remark: listed apart in the source

CCCCNc1ncc2c(-c3ccc(CN4CCN(C)CC4)cc3)cn([C@H]3CC[C@H](O)CC3)c2n1 [UNC2025A]
oral bioavailability [1]: orally bioavailable | MTD (predicted dose in chow) [2]: 120 mg/kg
